Assay results: PubChem BioAssay (NCI)
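48-hour exposure; five concentrations; linearly interpolated endpoints. Definition used: TGI = concentration required for complete inhibition of growth.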

Each compound was assayed on HCC-2998 colon (assay: NCI-60 cell line screen, 48 h).
`CCCCn1c(C)c(C(=O)OCC)c2cc(OCc3ccc(C(=O)Nn4c(C)ccc4C)cc3)c(Br)cc21` was tested, and the TGI was greater than 100 µM. `O=C(CC(=O)N(C(=O)c1ccccc1)c1ccc(Cl)cc1)N/N=C\c1cc(N=Nc2ccccc2Cl)ccc1O` was tested, and the TGI was greater than 100 µM. With `Cc1cccc2c(N)c3cccc(C(=O)NCCCNCCN)c3nc12` the TGI was 19.6 µM. Compound `CN1CCC(OC(=O)Oc2ccccc2)(c2ccccc2)CC1` has a TGI of 38.3 µM. `CCOC(=O)/C(O)=C(/C=NC(=S)c1ccncc1)C(=O)OCC` was tested, and the TGI was greater than 100 µM.

Each compound was assayed on A549 NSCLC (assay: NCI-60 cell line screen, 48 h).
Compound `Cc1nc(N)c(N2CCNCC2)c(=O)[nH]1` has a TGI greater than 100 µM. `Brc1ccc2c(-c3nc(-c4c[nH]c5ccc(Br)cc45)cs3)c[nH]c2c1` showed a TGI of 17 µM. With `O=C1NNC(=O)C2C3c4ccccc4C(c4ccccc43)C12` (stereo not given) the TGI was greater than 100 µM. `O=c1[nH]nc(-c2cccc(Br)c2)[nH]1` was tested, and the TGI was greater than 100 µM. For `CCOC(=O)C(Cl)(NC(=O)c1ccc(F)cc1)C(F)(F)F` (stereo not given), the TGI was greater than 100 µM. In the case of `COc1ccccc1N1C(=O)/C(=C\c2cccc(Oc3ccccc3)c2)SC1c1ccccc1` (stereo not given), the TGI is reported as greater than 100 µM. In the case of `Cc1ccc(S(=O)(=O)OC2C3OC(C)(C)OC3OC2C(c2cc(O)c3c(c2O)C(=O)c2ccccc2C3=O)c2cc(O)c3c(c2O)C(=O)c2ccccc2C3=O)cc1` (stereo not given), the TGI is reported as greater than 10 µM. `N#Cc1nc(COCCOCc2ccccc2)oc1N` was tested, and the TGI was greater than 100 µM. `CC1CN=C(Nc2ccc(S(N)(=O)=O)cc2)S1` (stereo not given) was tested, and the TGI was greater than 100 µM. Compound `COC1(OC)C2(Cl)CCC1(Cl)C(OC(C)=O)C2` (stereo not given) has a TGI greater than 100 µM. Work on `O=P(O)(O)CN1CCN(CP(=O)(O)O)CCN(CP(=O)(O)O)CCN(CP(=O)(O)O)CC1` yielded a TGI greater than 100 µM. In the case of `CC(C)NC(=O)OCc1c(COC(=O)NC(C)C)c(-c2ccc[n+](COC(=O)CC(C)(C)C)c2)n2c1CCC2`, the TGI is reported as greater than 100 µM. For `C=C(C)[C@@H](C(=O)OC)N1C(=O)c2ccccc2C1=O`, the TGI was greater than 100 µM. `CO/N=C(\C(=O)Nc1cncs1)c1csc(NC(c2ccccc2)(c2ccccc2)c2ccccc2)n1` was tested, and the TGI was greater than 10 µM. `CCCN(CCCCC(NC(C)=O)C(=O)NCc1ccccc1)C(=O)N(CCCl)N=O` (stereo not given) gave a TGI greater than 100 µM. Work on `O=C(CNc1ccc(Cl)cc1)Nn1c(-c2ccccc2)nc2ccccc2c1=O` yielded a TGI of 29.4 µM. With `COc1cc(C2c3cc4c(cc3[C@H](OCCN(C)C)[C@@H]3COC(=O)C23)OCO4)cc(OC)c1O` (stereo not given in full) the TGI was 1.34 µM. Work on `CCCCn1c(C)c(C(=O)OCC)c2cc(OCc3ccc(C(=O)Nn4c(C)ccc4C)cc3)c(Br)cc21` yielded a TGI greater than 100 µM. `O=C(CC(=O)N(C(=O)c1ccccc1)c1ccc(Cl)cc1)N/N=C\c1cc(N=Nc2ccccc2Cl)ccc1O` showed a TGI greater than 100 µM. With `Cc1cccc2c(N)c3cccc(C(=O)NCCCNCCN)c3nc12` the TGI was 15 µM. With `CN1CCC(OC(=O)Oc2ccccc2)(c2ccccc2)CC1` the TGI was greater than 100 µM. Work on `CCOC(=O)/C(O)=C(/C=NC(=S)c1ccncc1)C(=O)OCC` yielded a TGI greater than 100 µM.

These compounds were tested on HOP-62 NSCLC (assay: NCI-60 cell line screen, 48 h).
In the case of `Cc1nc(N)c(N2CCNCC2)c(=O)[nH]1`, the TGI is reported as greater than 100 µM. Work on `Brc1ccc2c(-c3nc(-c4c[nH]c5ccc(Br)cc45)cs3)c[nH]c2c1` yielded a TGI of 29.3 µM. With `O=C1NNC(=O)C2C3c4ccccc4C(c4ccccc43)C12` (stereo not given) the TGI was greater than 100 µM. With `O=c1[nH]nc(-c2cccc(Br)c2)[nH]1` the TGI was greater than 100 µM. Work on `CCOC(=O)C(Cl)(NC(=O)c1ccc(F)cc1)C(F)(F)F` (stereo not given) yielded a TGI greater than 100 µM. For `COc1ccccc1N1C(=O)/C(=C\c2cccc(Oc3ccccc3)c2)SC1c1ccccc1` (stereo not given), the TGI was greater than 100 µM. `Cc1ccc(S(=O)(=O)OC2C3OC(C)(C)OC3OC2C(c2cc(O)c3c(c2O)C(=O)c2ccccc2C3=O)c2cc(O)c3c(c2O)C(=O)c2ccccc2C3=O)cc1` (stereo not given) showed a TGI greater than 10 µM. `N#Cc1nc(COCCOCc2ccccc2)oc1N` gave a TGI greater than 100 µM. Work on `CC1CN=C(Nc2ccc(S(N)(=O)=O)cc2)S1` (stereo not given) yielded a TGI greater than 100 µM. Compound `COC1(OC)C2(Cl)CCC1(Cl)C(OC(C)=O)C2` (stereo not given) has a TGI greater than 100 µM. Work on `O=P(O)(O)CN1CCN(CP(=O)(O)O)CCN(CP(=O)(O)O)CCN(CP(=O)(O)O)CC1` yielded a TGI greater than 100 µM. `CC(C)NC(=O)OCc1c(COC(=O)NC(C)C)c(-c2ccc[n+](COC(=O)CC(C)(C)C)c2)n2c1CCC2` gave a TGI greater than 100 µM. Compound `C=C(C)[C@@H](C(=O)OC)N1C(=O)c2ccccc2C1=O` has a TGI greater than 100 µM. Work on `CO/N=C(\C(=O)Nc1cncs1)c1csc(NC(c2ccccc2)(c2ccccc2)c2ccccc2)n1` yielded a TGI greater than 10 µM. Work on `CCCN(CCCCC(NC(C)=O)C(=O)NCc1ccccc1)C(=O)N(CCCl)N=O` (stereo not given) yielded a TGI of 78.3 µM. `O=C(CNc1ccc(Cl)cc1)Nn1c(-c2ccccc2)nc2ccccc2c1=O` showed a TGI of 19.9 µM. Compound `COc1cc(C2c3cc4c(cc3[C@H](OCCN(C)C)[C@@H]3COC(=O)C23)OCO4)cc(OC)c1O` (stereo not given in full) has a TGI of 0.366 µM. `CCCCn1c(C)c(C(=O)OCC)c2cc(OCc3ccc(C(=O)Nn4c(C)ccc4C)cc3)c(Br)cc21` was tested, and the TGI was greater than 100 µM. `O=C(CC(=O)N(C(=O)c1ccccc1)c1ccc(Cl)cc1)N/N=C\c1cc(N=Nc2ccccc2Cl)ccc1O` was tested, and the TGI was greater than 100 µM. `Cc1cccc2c(N)c3cccc(C(=O)NCCCNCCN)c3nc12` was tested, and the TGI was 18.3 µM. With `CN1CCC(OC(=O)Oc2ccccc2)(c2ccccc2)CC1` the TGI was 40.6 µM. Compound `CCOC(=O)/C(O)=C(/C=NC(=S)c1ccncc1)C(=O)OCC` has a TGI greater than 100 µM.

These compounds were tested on PC-3 prostate (assay: NCI-60 cell line screen, 48 h).
With `Cc1nc(N)c(N2CCNCC2)c(=O)[nH]1` the TGI was greater than 100 µM.
